{"source": "the kinase profiling compilation of Christmann-Franck et al. (2016)", "test_in_all_cases": "radiometric filter-binding kinase assay, Kinaseprofiler", "key": {"[1]": {"molecular_target": "CDK1 CCNB1 (human) (UniProt P06493+P14635)", "sequence (P06493 whole entry, looked up)": "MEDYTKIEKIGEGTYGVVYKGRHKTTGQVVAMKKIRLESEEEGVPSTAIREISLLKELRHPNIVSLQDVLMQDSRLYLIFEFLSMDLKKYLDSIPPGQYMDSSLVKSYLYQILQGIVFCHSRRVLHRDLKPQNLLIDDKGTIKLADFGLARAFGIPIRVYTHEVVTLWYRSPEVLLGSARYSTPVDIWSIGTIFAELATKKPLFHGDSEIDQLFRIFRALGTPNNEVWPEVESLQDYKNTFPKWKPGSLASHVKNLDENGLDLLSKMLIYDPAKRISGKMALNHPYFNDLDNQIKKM", "sequence (P14635 whole entry, looked up)": "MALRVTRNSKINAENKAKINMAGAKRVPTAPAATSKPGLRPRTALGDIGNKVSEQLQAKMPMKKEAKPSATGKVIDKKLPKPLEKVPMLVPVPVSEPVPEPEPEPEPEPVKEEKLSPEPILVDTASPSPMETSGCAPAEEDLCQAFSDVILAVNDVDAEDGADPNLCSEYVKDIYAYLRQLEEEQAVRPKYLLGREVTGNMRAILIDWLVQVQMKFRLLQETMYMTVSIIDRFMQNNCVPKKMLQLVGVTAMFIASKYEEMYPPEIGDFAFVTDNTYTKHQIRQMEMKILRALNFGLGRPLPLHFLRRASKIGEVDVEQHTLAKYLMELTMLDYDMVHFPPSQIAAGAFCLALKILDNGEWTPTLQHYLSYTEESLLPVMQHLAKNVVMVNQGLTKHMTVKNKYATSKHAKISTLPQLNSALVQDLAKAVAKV", "details": "ATP 45 µM"}, "[2]": {"molecular_target": "STK4 (human) (UniProt Q13043)", "sequence (Q13043 whole entry, looked up)": "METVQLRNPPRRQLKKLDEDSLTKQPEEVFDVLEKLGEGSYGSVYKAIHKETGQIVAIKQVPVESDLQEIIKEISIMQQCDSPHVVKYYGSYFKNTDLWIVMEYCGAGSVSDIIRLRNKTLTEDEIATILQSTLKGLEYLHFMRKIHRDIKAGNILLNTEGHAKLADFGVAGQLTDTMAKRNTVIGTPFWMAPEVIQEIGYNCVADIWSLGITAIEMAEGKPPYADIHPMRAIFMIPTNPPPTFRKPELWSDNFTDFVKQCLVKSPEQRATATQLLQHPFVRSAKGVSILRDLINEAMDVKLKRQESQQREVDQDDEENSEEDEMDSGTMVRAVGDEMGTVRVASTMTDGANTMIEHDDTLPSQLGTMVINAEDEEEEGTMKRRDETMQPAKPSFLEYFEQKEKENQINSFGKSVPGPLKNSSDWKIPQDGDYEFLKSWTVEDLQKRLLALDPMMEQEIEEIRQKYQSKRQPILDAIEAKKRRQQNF", "details": "ATP 90 µM"}, "[3]": {"molecular_target": "INSR (human) (UniProt P06213)", "sequence (P06213 whole entry, looked up)": "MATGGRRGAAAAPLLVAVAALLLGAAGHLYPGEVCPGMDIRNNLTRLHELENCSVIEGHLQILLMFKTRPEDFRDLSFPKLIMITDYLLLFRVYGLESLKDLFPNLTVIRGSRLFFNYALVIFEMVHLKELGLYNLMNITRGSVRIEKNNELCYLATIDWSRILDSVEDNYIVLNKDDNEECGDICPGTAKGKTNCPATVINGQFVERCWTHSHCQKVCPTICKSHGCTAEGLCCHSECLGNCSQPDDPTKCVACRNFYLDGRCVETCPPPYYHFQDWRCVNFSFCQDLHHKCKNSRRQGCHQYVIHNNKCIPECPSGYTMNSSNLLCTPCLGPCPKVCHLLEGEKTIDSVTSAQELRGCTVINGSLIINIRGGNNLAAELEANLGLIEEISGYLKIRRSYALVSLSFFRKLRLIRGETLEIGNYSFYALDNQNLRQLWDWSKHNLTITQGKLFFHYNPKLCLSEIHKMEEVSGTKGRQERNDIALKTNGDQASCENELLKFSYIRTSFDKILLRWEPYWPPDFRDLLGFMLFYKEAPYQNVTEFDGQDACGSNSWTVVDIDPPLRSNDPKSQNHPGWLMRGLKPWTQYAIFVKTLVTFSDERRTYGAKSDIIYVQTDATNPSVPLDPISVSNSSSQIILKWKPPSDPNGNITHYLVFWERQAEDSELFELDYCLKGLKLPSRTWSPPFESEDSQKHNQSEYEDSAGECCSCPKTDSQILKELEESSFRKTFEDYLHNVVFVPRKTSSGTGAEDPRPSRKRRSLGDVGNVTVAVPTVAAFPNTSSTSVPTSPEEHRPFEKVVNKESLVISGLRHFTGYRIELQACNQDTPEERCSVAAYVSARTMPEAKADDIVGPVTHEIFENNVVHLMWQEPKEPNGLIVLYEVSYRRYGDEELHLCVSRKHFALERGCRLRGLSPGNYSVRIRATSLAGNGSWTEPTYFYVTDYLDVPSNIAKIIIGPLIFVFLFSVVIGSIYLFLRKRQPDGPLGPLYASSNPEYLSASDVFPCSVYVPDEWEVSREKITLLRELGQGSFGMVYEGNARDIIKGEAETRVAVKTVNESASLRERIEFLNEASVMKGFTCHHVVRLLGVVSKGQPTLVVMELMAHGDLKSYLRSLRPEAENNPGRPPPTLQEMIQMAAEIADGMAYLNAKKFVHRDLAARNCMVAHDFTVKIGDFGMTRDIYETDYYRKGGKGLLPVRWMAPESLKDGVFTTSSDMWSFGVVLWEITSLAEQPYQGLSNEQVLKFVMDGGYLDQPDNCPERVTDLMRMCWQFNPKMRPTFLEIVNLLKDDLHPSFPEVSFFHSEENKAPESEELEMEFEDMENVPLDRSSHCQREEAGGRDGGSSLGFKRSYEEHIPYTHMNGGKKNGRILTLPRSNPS"}, "[4]": {"molecular_target": "DAPK2 (human) (UniProt Q9UIK4)", "sequence (Q9UIK4 whole entry, looked up)": "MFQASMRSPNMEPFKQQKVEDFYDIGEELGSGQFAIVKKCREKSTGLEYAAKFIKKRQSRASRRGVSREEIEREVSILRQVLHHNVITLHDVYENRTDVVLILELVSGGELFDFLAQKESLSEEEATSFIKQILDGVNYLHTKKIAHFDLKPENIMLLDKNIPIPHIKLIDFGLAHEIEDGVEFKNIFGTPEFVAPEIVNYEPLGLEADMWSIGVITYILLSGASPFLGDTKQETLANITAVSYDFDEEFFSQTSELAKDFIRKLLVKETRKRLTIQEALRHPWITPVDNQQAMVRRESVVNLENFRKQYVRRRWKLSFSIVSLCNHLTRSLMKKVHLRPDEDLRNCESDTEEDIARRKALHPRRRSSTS", "details": "ATP 10 µM"}, "[5]": {"molecular_target": "RPS6KA2 KD1 KD2 (human) (UniProt Q15349)", "sequence (Q15349 whole entry, looked up)": "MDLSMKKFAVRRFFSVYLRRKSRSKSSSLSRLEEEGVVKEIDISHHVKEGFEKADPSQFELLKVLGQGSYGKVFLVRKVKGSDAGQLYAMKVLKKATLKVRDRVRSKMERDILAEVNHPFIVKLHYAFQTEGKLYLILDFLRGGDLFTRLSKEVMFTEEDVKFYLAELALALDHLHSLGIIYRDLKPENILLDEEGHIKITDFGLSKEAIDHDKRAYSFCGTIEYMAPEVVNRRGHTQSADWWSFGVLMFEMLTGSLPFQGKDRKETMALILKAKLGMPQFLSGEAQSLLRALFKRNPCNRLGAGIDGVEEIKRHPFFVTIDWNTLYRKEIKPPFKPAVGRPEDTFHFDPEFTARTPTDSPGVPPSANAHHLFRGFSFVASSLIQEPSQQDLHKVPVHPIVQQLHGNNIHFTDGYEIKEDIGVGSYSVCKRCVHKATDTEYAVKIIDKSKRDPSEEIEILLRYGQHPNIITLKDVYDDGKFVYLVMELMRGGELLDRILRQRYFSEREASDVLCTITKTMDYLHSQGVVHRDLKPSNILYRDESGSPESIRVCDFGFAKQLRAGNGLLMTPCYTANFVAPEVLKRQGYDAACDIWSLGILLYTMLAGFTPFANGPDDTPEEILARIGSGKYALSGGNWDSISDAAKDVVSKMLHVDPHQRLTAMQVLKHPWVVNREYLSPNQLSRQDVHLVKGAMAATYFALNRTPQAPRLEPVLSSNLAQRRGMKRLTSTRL", "details": "ATP 10 µM"}}, "data": [{"smiles": "O=C1Nc2ccccc2/C1=C1\\Nc2ccccc2\\C1=N/O", "values": [{"measurement": "residual activity", "setting": "[1]; compound 1.0 µM", "result": 35, "unit": "%"}, {"measurement": "residual activity", "setting": "[1]; compound 10.0 µM", "result": 19, "unit": "%"}, {"measurement": "residual activity", "setting": "[2]; compound 1.0 µM", "result": 8, "unit": "%"}, {"measurement": "residual activity", "setting": "[2]; compound 10.0 µM", "result": 2, "unit": "%"}, {"measurement": "residual activity", "setting": "[3]; compound 1.0 µM, ATP 45 µM", "result": 35, "unit": "%"}, {"measurement": "residual activity", "setting": "[3]; compound 1.0 µM, ATP 200 µM", "result": 17, "unit": "%"}, {"measurement": "residual activity", "setting": "[3]; compound 10.0 µM, ATP 45 µM", "result": 19, "unit": "%"}, {"measurement": "residual activity", "setting": "[3]; compound 10.0 µM, ATP 200 µM", "result": 10, "unit": "%"}, {"measurement": "residual activity", "setting": "[4]; compound 1.0 µM", "result": 73, "unit": "%"}, {"measurement": "residual activity", "setting": "[4]; compound 10.0 µM", "result": 23, "unit": "%"}, {"measurement": "residual activity", "setting": "[5]; compound 1.0 µM", "result": 19, "unit": "%"}, {"measurement": "residual activity", "setting": "[5]; compound 10.0 µM", "result": 4, "unit": "%"}]}]}
